Our source for the Ki values is patent US10562908B2, “Ortho substituted phenylpyrazolo- and phenylpyrrolo-pyridazine derivatives having multimodal activity against pain” (priority 2016, dated 2020).

One experiment has as its target T1, human μ-opioid receptor (Homo sapiens, UniProt P35372).
T1 construct: expressed in transfected cells; host or cells: CHO-K1
Kind of experiment: Human μ-opioid receptor radioligand assay ([3H]-DAMGO). It is filed as binding. Summed up:
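Transfected CHO-K1 membranes (20 μg) incubated with 1 nM [3H]-DAMGO in 50 mM Tris-HCl, 5 mM MgCl2, pH 7.4, 60 min at 27 °C; non-specific binding with 10 μM naloxone. Test compound at five concentrations; bound radioactivity counted after filtration by scintillation.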

Experiment [1] has as its target Human α2δ-1 subunit of Cav2.2 calcium channel (Homo sapiens, UniProt P54289). Kind of experiment: Human α2δ-1 subunit of Cav2.2 calcium channel assay ([3H]-Gabapentin). The experiment is classed as binding. The procedure, abridged:
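α2δ-1-enriched membranes (2.5 μg) were incubated with 15 nM [3H]-gabapentin in 10 mM Hepes-KOH pH 7.4 for 60 min at 27 °C. Non-specific binding was defined with 10 μM pregabalin. Compounds were tested at five concentrations, with filtration and scintillation counting.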

Where [2] appears, read: transfected CHO-K1 cell membranes, 1 nM [3H]-DAMGO, read-out: Binding μ (Ki).
Where [3] appears, read: human α2δ-1 enriched membranes, 15 nM [3H]-Gabapentin, read-out: Binding α2δ-1 (Ki).

pKi: −log10 of the molar value. Like-named read-outs stand apart in the source and are kept apart here. A value given as a limit tells only on which side of the number the result lay.

For orientation: pKi means −log10 of the Ki, conventionally taken in molar units.

T1 sequence (P35372 whole entry): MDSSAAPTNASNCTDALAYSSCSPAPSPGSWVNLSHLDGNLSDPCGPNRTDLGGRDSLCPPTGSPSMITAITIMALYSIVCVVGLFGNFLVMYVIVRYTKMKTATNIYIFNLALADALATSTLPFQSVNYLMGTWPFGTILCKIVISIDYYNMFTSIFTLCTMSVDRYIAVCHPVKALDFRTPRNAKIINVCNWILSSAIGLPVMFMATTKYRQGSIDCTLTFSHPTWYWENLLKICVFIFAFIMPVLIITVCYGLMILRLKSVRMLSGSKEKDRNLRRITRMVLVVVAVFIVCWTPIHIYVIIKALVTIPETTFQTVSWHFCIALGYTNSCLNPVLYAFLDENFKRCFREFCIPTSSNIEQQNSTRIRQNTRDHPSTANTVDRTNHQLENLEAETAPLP
Sequence of Human α2δ-1 subunit of Cav2.2 calcium channel (P54289 25-1103): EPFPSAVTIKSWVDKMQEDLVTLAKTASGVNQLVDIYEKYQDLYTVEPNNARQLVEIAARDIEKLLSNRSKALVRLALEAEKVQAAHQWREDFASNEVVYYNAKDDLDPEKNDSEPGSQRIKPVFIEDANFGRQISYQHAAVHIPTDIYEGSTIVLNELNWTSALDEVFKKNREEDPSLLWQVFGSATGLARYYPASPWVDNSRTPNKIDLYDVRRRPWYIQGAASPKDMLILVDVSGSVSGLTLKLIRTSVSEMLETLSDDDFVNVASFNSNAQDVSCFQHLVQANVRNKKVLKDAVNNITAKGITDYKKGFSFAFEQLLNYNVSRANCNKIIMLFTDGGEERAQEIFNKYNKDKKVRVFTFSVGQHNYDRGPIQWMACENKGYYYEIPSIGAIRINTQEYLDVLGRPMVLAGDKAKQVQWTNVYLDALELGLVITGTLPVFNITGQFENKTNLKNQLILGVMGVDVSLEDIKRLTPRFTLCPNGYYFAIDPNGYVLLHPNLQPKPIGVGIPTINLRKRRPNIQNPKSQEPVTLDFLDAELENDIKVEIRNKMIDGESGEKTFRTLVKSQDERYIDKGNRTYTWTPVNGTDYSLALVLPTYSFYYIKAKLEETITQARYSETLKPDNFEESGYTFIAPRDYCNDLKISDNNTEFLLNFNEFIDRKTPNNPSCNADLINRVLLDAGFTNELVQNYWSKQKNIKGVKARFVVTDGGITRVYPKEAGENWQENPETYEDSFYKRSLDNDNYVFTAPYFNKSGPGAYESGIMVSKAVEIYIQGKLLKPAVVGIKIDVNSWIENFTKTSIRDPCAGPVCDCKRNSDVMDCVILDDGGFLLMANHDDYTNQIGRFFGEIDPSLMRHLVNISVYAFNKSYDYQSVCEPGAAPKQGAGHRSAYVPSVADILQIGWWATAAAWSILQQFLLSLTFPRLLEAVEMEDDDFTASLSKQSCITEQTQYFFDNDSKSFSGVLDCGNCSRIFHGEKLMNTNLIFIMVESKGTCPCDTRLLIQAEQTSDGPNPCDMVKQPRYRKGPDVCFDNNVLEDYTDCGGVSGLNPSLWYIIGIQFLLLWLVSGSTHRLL

Regarding `Cc1nnc(N(C)C)c2nn(-c3ccccc3OCC3CCN(CCc4ccccc4)CC3)c(C)c12` [Example 58, N,N,3,4-tetramethyl-2-(2-((1-phenethylpiperidin-4-yl)methoxy)phenyl)-2H-pyrazolo[3,4-d]pyridazin-7-amine], the pKi at human μ-opioid receptor was more than 7.00; in experiment [1], less than 5.30.
Take `CNCC(Oc1ccccc1-n1nc2c(N(C)C)nnc(C)c2c1C)c1ccccc1` (centres unmarked) [Example 67, N,N,3,4-Tetramethyl-2-(2-(2-(methylamino)-1-phenylethoxy)phenyl)-2H-pyrazolo[3,4-d]pyridazin-7-amine]: the pKi on human μ-opioid receptor (setting [2]) was less than 6.30; in experiment [1] (setting [3]) it was 5.30 to 6.30.
On the same counts, the results for `Cc1nnc(N(C)C)c2nn(-c3ccccc3OC3CNCc4ccccc43)c(C)c12` (centres unmarked) [Example 32, N,N,3,4-tetramethyl-2-(2-((1,2,3,4-tetrahydroisoquinolin-4-yl)oxy)phenyl)-2H-pyrazolo[3,4-d]pyridazin-7-amine] are less than 6.30 and 5.30 to 6.30.
On the same counts, the results for `CNCCC(Cc1ccccc1)Oc1ccccc1-n1nc2c(N(C)C)nnc(C)c2c1C` (centres unmarked) [Example 77, N,N,3,4-tetramethyl-2-(2-((4-(methylamino)-1-phenylbutan-2-yl)oxy)phenyl)-2H-pyrazolo[3,4-d]pyridazin-7-amine] are less than 6.30 and 5.30 to 6.30.
On the same counts, the results for `CNCCC(Oc1ccc(C(=O)N(C)C)cc1-n1nc2c(N(C)C)nnc(C)c2c1C)c1ccccc1` (centres unmarked) [Example 96, 3-(7-(Dimethylamino)-3,4-dimethyl-2H-pyrazolo[3,4-d]pyridazin-2-yl)-N,N-dimethyl-4-(3-(methylamino)-1-phenylpropoxy)benzamide] are less than 6.30 and less than 5.30.
As for `CNCCC(Oc1ccccc1-n1nc2c(N(C)C)nnc(C)c2c1C)c1ccccc1F` (centres unmarked) [Example 41, 2-(2-(1-(2-fluorophenyl)-3-(methylamino)propoxy)phenyl)-N,N,3,4-tetramethyl-2H-pyrazolo[3,4-d]pyridazin-7-amine], the pKi at human μ-opioid receptor (setting [2]) was less than 6.30; in experiment [1] (setting [3]), 5.30 to 6.30.
On the same counts, the results for `CNCCC(Oc1ccccc1-n1nc2c(N(C)C)nnc(C)c2c1C)c1cccc(NC(C)=O)c1` (centres unmarked) [Example 84, N-(3-(1-(2-(7-(dimethylamino)-3,4-dimethyl-2H-pyrazolo[3,4-d]pyridazin-2-yl)phenoxy)-3-(methylamino)propyl)phenyl)acetamide] are less than 6.30 and 5.30 to 6.30.
On the same counts, the results for `CNCCC(Oc1ccccc1-n1nc2c(CC#N)nnc(C)c2c1C)c1ccccc1` (centres unmarked) [Example 63, 2-(3,4-Dimethyl-2-(2-(3-(methylamino)-1-phenylpropoxy)phenyl)-2H-pyrazolo[3,4-d]pyridazin-7-yl)acetonitrile] are less than 6.30 and less than 5.30.
On to `CNCCC(Oc1ccc(C(N)=O)cc1-n1nc2c(N(C)C)nnc(C)c2c1C)c1ccccc1` (centres unmarked) [Example 93, 3-(7-(dimethylamino)-3,4-dimethyl-2H-pyrazolo[3,4-d]pyridazin-2-yl)-4-(3-(methylamino)-1-phenylpropoxy)benzamide], for which the figures for the pKi (at human μ-opioid receptor (setting [2]); in experiment [1] (setting [3])) were less than 6.30 and less than 5.30, respectively.
On the same counts, the results for `CNCCC(Oc1cc(O)ccc1-n1nc2c(N(C)C)nnc(C)c2c1C)c1ccccc1` (centres unmarked) [Example 98, 4-(7-(dimethylamino)-3,4-dimethyl-2H-pyrazolo[3,4-d]pyridazin-2-yl)-3-(3-(methylamino)-1-phenylpropoxy)phenol] are less than 6.30 and 5.30 to 6.30.
On the same counts, the results for `CNCCC(Oc1ccccc1-n1nc2c(N(C)C)nnc(C)c2c1C)c1cccc(C#N)c1` (centres unmarked) [Example 14, 3-(1-(2-(7-(dimethylamino)-3,4-dimethyl-2H-pyrazolo[3,4-d]pyridazin-2-yl)phenoxy)-3-(methylamino)propyl)benzonitrile] are less than 6.30 and 5.30 to 6.30.
On the same counts, the results for `CNCCC(C)Oc1ccccc1-n1nc2c(N(C)C)nnc(C)c2c1C` (centres unmarked) [Example 10, N,N,3,4-tetramethyl-2-(2-((4-(methylamino)butan-2-yl)oxy)phenyl)-2H-pyrazolo[3,4-d]pyridazin-7-amine] are less than 6.30 and 5.30 to 6.30.
With `CNCc1ccccc1COc1ccccc1-n1nc2c(N(C)C)nnc(C)c2c1C` [Example 72, N,N,3,4-Tetramethyl-2-(2-((2-((methylamino)methyl)benzyl)oxy)phenyl)-2H-pyrazolo[3,4-d]pyridazin-7-amine], the pKi was less than 6.30 at human μ-opioid receptor (setting [2]) and 5.30 to 6.30 in experiment [1] (setting [3]).
As for `CNCCC(Oc1ccccc1-n1nc2c(N(C)C)nnc(C)c2c1C)c1ccc(F)cc1` (centres unmarked) [Example 42, 2-(2-(1-(4-fluorophenyl)-3-(methylamino)propoxy)phenyl)-N,N,3,4-tetramethyl-2H-pyrazolo[3,4-d]pyridazin-7-amine], the negative logarithm of the Ki (pKi) is less than 6.30 on human μ-opioid receptor and more than 6.30 in experiment [1].
In the case of `COCCNCCC(Oc1ccccc1-n1nc2c(N(C)C)nnc(C)c2c1C)c1ccccc1` (centres unmarked) [Example 26, 2-(2-(3-((2-methoxyethyl)amino)-1-phenylpropoxy)phenyl)-N,N,3,4-tetramethyl-2H-pyrazolo[3,4-d]pyridazin-7-amine], the pKi at human μ-opioid receptor (setting [2]) is less than 6.30; in experiment [1] (setting [3]), 5.30 to 6.30.
As to `CNCCC(Oc1ccccc1-n1nc2c(N(C)C)nnc(C)c2c1C)c1cccs1` (centres unmarked) [Example 78, N,N,3,4-Tetramethyl-2-(2-(3-(methylamino)-1-(thiophen-2-yl)propoxy)phenyl)-2H-pyrazolo[3,4-d]pyridazin-7-amine], the pKi on human μ-opioid receptor was 6.30 to 7.00; in experiment [1] it was 5.30 to 6.30.
With `CNCCC(Oc1ccccc1-n1nc2c(N(C)C)nnc(C)c2c1C)c1cccnc1` (centres unmarked) [Example 21, N,N,3,4-tetramethyl-2-(2-(3-(methylamino)-1-(pyridin-3-yl)propoxy)phenyl)-2H-pyrazolo[3,4-d]pyridazin-7-amine], the results for the pKi (on human μ-opioid receptor (setting [2]); in experiment [1] (setting [3])) were less than 6.30 and 5.30 to 6.30, respectively.
Take `CNCCC(Oc1ccccc1-n1nc2c(N(C)C)nnc(C)c2c1C)c1cccc(O)c1` (centres unmarked) [Example 79, 3-(1-(2-(7-(Dimethylamino)-3,4-dimethyl-2H-pyrazolo[3,4-d]pyridazin-2-yl)phenoxy)-3-(methylamino)propyl)phenol]: the pKi on human μ-opioid receptor is 6.30 to 7.00; in experiment [1], 5.30 to 6.30.
Regarding `CNCCC(Oc1ccccc1-n1nc2c(NCc3ccccc3)nnc(C)c2c1C)c1ccccc1` (centres unmarked) [Example 7, N-benzyl-3,4-dimethyl-2-(2-(3-(methylamino)-1-phenylpropoxy)phenyl)-2H-pyrazolo[3,4-d]pyridazin-7-amine], the pKi at human μ-opioid receptor (setting [2]) was less than 6.30; in experiment [1] (setting [3]), 5.30 to 6.30.
On the same counts, the results for `CNCCC(Oc1ccccc1-n1nc2c(N(C)C)nnc(C)c2c1C)c1ccncc1` (centres unmarked) [Example 19, N,N,3,4-tetramethyl-2-(2-(3-(methylamino)-1-(pyridin-4-yl)propoxy)phenyl)-2H-pyrazolo[3,4-d]pyridazin-7-amine] are less than 6.30 and 5.30 to 6.30.
`CCNCC[C@@H](Oc1ccccc1-n1nc2c(N(C)C)nnc(C)c2c1C)c1ccccc1` [Example 101, (R)-2-(2-(3-(Ethylamino)-1-phenylpropoxy)phenyl)-N,N,3,4-tetramethyl-2H-pyrazolo[3,4-d]pyridazin-7-amine]: the pKi on human μ-opioid receptor was 6.30 to 7.00; in experiment [1], 5.30 to 6.30.
In the case of `Cc1nnc(N(C)C)c2nn(-c3ccccc3OC3CCNC3)c(C)c12` (centres unmarked) [Example 50, N,N,3,4-Tetramethyl-2-(2-(pyrrolidin-3-yloxy)phenyl)-2H-pyrazolo[3,4-d]pyridazin-7-amine], the pKi at human μ-opioid receptor (setting [2]) is less than 6.30; in experiment [1] (setting [3]), less than 5.30.
On the same counts, the results for `CNCCC(Oc1ccccc1-n1nc2c(N(C)C)nnc(C)c2c1C)c1cccc(C(N)=O)c1` (centres unmarked) [Example 91, 3-(1-(2-(7-(Dimethylamino)-3,4-dimethyl-2H-pyrazolo[3,4-d]pyridazin-2-yl)phenoxy)-3-(methylamino)propyl)benzamide] are less than 6.30 and 5.30 to 6.30.
On the same counts, the results for `Cc1nnc(N(C)C)c2nn(-c3ccccc3OCCN3CCCC3)c(C)c12` [Example 2, N,N,3,4-tetramethyl-2-(2-(2-(pyrrolidin-1-yl)ethoxy)phenyl)-2H-pyrazolo[3,4-d]pyridazin-7-amine] are less than 6.30 and less than 5.30.
On the same counts, the results for `CCOc1ccc(OC(CCNC)c2ccccc2)c(-n2nc3c(N(C)C)nnc(C)c3c2C)c1` (centres unmarked) [Example 89, 2-(5-ethoxy-2-(3-(methylamino)-1-phenylpropoxy)phenyl)-N,N,3,4-tetramethyl-2H-pyrazolo[3,4-d]pyridazin-7-amine] are less than 6.30 and 5.30 to 6.30.
On to `CNCCC(Oc1ccccc1-n1nc2c(N(C)C)nnc(C)c2c1C)c1cc(F)cc(F)c1` (centres unmarked) [Example 48, 2-(2-(1-(3,5-difluorophenyl)-3-(methylamino)propoxy)phenyl)-N,N,3,4-tetramethyl-2H-pyrazolo[3,4-d]pyridazin-7-amine], for which the pKi on human μ-opioid receptor (setting [2]) was less than 6.30; in experiment [1] (setting [3]) it was 5.30 to 6.30.
As to `CNCCC(Oc1ccccc1-n1nc2c(N(C)C)nnc(C)c2c1C)c1ccccc1` (centres unmarked) [Example 6, N,N,3,4-tetramethyl-2-(2-(3-(methylamino)-1-phenylpropoxy)phenyl)-2H-pyrazolo[3,4-d]pyridazin-7-amine], the pKi was 6.30 to 7.00 at human μ-opioid receptor and 5.30 to 6.30 in experiment [1].
As to `CNCCC(Oc1ccccc1-n1nc2c(N3CCOCC3)nnc(C)c2c1C)c1ccccc1` (centres unmarked) [Example 23, 3-(2-(3,4-dimethyl-7-morpholino-2H-pyrazolo[3,4-d]pyridazin-2-yl)phenoxy)-N-methyl-3-phenylpropan-1-amine], the pKi was less than 6.30 on human μ-opioid receptor (setting [2]) and 5.30 to 6.30 in experiment [1] (setting [3]).
